According to US9045461B2, “Phenyl-heteroaryl derivatives and methods of use thereof” (TransTech Pharma, LLC, priority 2010, dated 2015):
pIC50: −log10 of the molar value. Where a name gives a salt, the structure may show the parent alone.

Columns and labels:
[1] = biological target: T1, sRAGE binding to β-amyloid (Homo sapiens, UniProt Q15109); assay: RAGE binding assay (ELISA), β-amyloid as the RAGE ligand; settings: compounds tested in hydrochloride salt form, concentration at which 50% signal has been inhibited
T1 construct: extracellular domain can be isolated by proteolysis of RAGE to generate soluble RAGE (sRAGE) comprised of the V and C domains
Summary of the method: (§1)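 Ligand (500 ng/well) coated in carbonate buffer pH 9.8 overnight at 4° C and blocked with 1% BSA; test compound (10-100 μM in water, 4% DMSO co-solvent) incubated with sRAGE (6 nM FAC) 1 h at 37° C. Bound sRAGE detected by anti-sRAGE/biotin-anti-mouse/AP-streptavidin with pNPP, A405. IC50 = 50% signal inhibition.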

[2] = biological target: T2, sRAGE binding to S100b (Homo sapiens, UniProt Q15109); assay: RAGE binding assay (ELISA), S100b as the RAGE ligand; settings: compounds tested in hydrochloride salt form, concentration at which 50% signal has been inhibited
T2 construct: extracellular domain can be isolated by proteolysis of RAGE to generate soluble RAGE (sRAGE) comprised of the V and C domains
Summary of the method: as §1

T1 sequence (Q15109 23-342 limits assumed): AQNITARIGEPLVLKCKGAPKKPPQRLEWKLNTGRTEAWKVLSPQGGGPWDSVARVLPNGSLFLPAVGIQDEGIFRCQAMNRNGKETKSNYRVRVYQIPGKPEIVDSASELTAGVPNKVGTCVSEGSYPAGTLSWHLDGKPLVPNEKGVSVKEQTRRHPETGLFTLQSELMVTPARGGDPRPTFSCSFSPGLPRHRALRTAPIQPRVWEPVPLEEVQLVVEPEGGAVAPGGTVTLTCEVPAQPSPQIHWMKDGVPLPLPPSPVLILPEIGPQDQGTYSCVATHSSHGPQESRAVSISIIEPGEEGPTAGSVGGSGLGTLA
T2 sequence (Q15109 23-342 limits assumed): as above

CCCCc1nnc(C(=O)NC[C@H](O)CN(C)C)cc1-c1ccc(OC2CCCCC2)cc1 [Example 87, 6-Butyl-5-(4-cyclohexyloxy-phenyl)-pyridazine-3-carboxylic acid ((S)-3-dimethylamino-2-hydroxy-propyl)-amide dihydrochloride]
pIC50 [1]: 5.61
pIC50 [2]: 5.71

CCCCc1nnc(C(=O)NC[C@@H](O)CN(C)C)cc1-c1ccc(OC2CCCCC2)cc1 [Example 88, 6-Butyl-5-(4-cyclohexyloxy-phenyl)-pyridazine-3-carboxylic acid ((R)-3-dimethylamino-2-hydroxy-propyl)-amide dihydrochloride]
pIC50 [1]: 5.61
pIC50 [2]: 5.69

CCCCc1nnc(C(=O)NCC2(OC)CCN(C)CC2)cc1-c1ccc(OC2CCCCC2)cc1 [Example 89, 6-Butyl-5-(4-cyclohexyloxy-phenyl)-pyridazine-3-carboxylic acid (4-methoxy-1-methyl-piperidin-4-ylmethyl)-amide dihydrochloride]
pIC50 [1]: 5.70
pIC50 [2]: 5.56

CCCCc1nnc(C(=O)NCC2CNCCO2)cc1-c1ccc(OC2CCCCC2)cc1 (stereo not shown) [Example 90, 6-Butyl-5-(4-cyclohexyloxy-phenyl)-pyridazine-3-carboxylic acid (morpholin-2-ylmethyl)-amide dihydrochloride]
pIC50 [1]: 5.75
pIC50 [2]: 5.81

CCCCc1nnc(C(=O)NC[C@H]2CCCN2CC)cc1-c1ccc(OC2CCCCC2)cc1 [Example 91, 6-Butyl-5-(4-cyclohexyloxy-phenyl)-pyridazine-3-carboxylic acid ((R)-1-ethyl-pyrrolidin-2-ylmethyl)-amide dihydrochloride]
pIC50 [1]: 5.86
pIC50 [2]: 5.94

CCCCc1nnc(C(=O)NC[C@@H]2CCCN2CC)cc1-c1ccc(OC2CCCCC2)cc1 [Example 92, 6-Butyl-5-(4-cyclohexyloxy-phenyl)-pyridazine-3-carboxylic acid ((S)-1-ethyl-pyrrolidin-2-ylmethyl)-amide dihydrochloride]
pIC50 [1]: 5.99
pIC50 [2]: 5.76

CCCCc1nnc(C(=O)NCCN2CCC(O)CC2)cc1-c1ccc(OC2CCCCC2)cc1 [Example 93, 6-Butyl-5-(4-cyclohexyloxy-phenyl)-pyridazine-3-carboxylic acid [2-(4-hydroxy-piperidin-1-yl)-ethyl]-amide dihydrochloride]
pIC50 [1]: 5.60
pIC50 [2]: 5.77

CCCCc1nnc(C(=O)NCC2(O)CCN(C)CC2)cc1-c1ccc(OC2CCCCC2)cc1 [Example 94, 6-Butyl-5-(4-cyclohexyloxy-phenyl)-pyridazine-3-carboxylic acid (4-hydroxy-1-methyl-piperidin-4-ylmethyl)-amide dihydrochloride]
pIC50 [1]: 5.71
pIC50 [2]: 5.59

CCCCc1nnc(C(=O)N[C@H]2CC[C@@H](N(C)C)CC2)cc1-c1ccc(OC2CCCCC2)cc1 [Example 95, (±)-(cis)-6-Butyl-5-(4-cyclohexyloxy-phenyl)-pyridazine-3-carboxylic acid (4-dimethylamino-cyclohexyl)-amide dihydrochloride]
pIC50 [1]: 5.98
pIC50 [2]: 6.16

CCCCc1nnc(C(=O)NC2CC3CCC(C2)N3C)cc1-c1ccc(OC2CCCCC2)cc1 (stereo not shown) [Example 96, 6-Butyl-5-(4-cyclohexyloxy-phenyl)-pyridazine-3-carboxylic acid (8-methyl-8-aza-bicyclo[3.2.1]oct-3-yl)-amide dihydrochloride]
pIC50 [1]: 6.03
pIC50 [2]: 5.94

CCCCc1nnc(C(=O)N2CCO[C@@H](CN(C)C)C2)cc1-c1ccc(OC2CCCCC2)cc1 [Example 97, [6-Butyl-5-(4-cyclohexyloxy-phenyl)-pyridazin-3-yl]-((S)-2-dimethylaminomethyl-morpholin-4-yl)-methanone dihydrochloride]
pIC50 [1]: 5.76
pIC50 [2]: 5.72

CCCCc1nnc(C(=O)N2CCO[C@H](CN(C)C)C2)cc1-c1ccc(OC2CCCCC2)cc1 [Example 98, [6-Butyl-5-(4-cyclohexyloxy-phenyl)-pyridazin-3-yl]-((R)-2-dimethylaminomethyl-morpholin-4-yl)-methanone dihydrochloride]
pIC50 [1]: 5.79
pIC50 [2]: 5.70

CCCCc1nnc(C(=O)NCC2CN(C)CCC2(F)F)cc1-c1ccc(OC2CCCCC2)cc1 (stereo not shown) [Example 99, 6-Butyl-5-(4-cyclohexyloxy-phenyl)-pyridazine-3-carboxylic acid (4,4-difluoro-1-methyl-piperidin-3-ylmethyl)-amide dihydrochloride]
pIC50 [1]: 5.74
pIC50 [2]: 5.74

CCCCc1nnc(C(=O)NCC2CN(C)CCC2O)cc1-c1ccc(OC2CCCCC2)cc1 (stereo not shown) [Example 100, 6-Butyl-5-(4-cyclohexyloxy-phenyl)-pyridazine-3-carboxylic acid (4-hydroxy-1-methyl-piperidin-3-ylmethyl)-amide dihydrochloride]
pIC50 [1]: 5.94
pIC50 [2]: 6.23

CCCCc1nnc(C(=O)NCC2CN(C)CCC2OC)cc1-c1ccc(OC2CCCCC2)cc1 (stereo not shown) [Example 101, 6-Butyl-5-(4-cyclohexyloxy-phenyl)-pyridazine-3-carboxylic acid (4-methoxy-1-methyl-piperidin-3-ylmethyl)-amide dihydrochloride]
pIC50 [1]: 6.03
pIC50 [2]: 6.18

CCCCc1nnc(C(=O)NCC2CCN(C)CC2)cc1-c1ccc(OC2CCCCC2)cc1 [Example 103, 6-Butyl-5-(4-cyclohexyloxy-phenyl)-pyridazine-3-carboxylic acid (1-methyl-piperidin-4-ylmethyl)-amide dihydrochloride]
pIC50 [1]: 5.95
pIC50 [2]: 5.75

CCCCc1nnc(C(=O)N2CCC(CN(C)C)C(F)(F)C2)cc1-c1ccc(OC2CCCCC2)cc1 (stereo not shown) [Example 105, [6-Butyl-5-(4-cyclohexyloxy-phenyl)-pyridazin-3-yl]-(4-dimethylaminomethyl-3,3-difluoro-piperidin-1-yl)-methanone dihydrochloride]
pIC50 [1]: 5.67
pIC50 [2]: 5.86

CCCCc1nnc(C(=O)N2CCC(O)C(CN(C)C)C2)cc1-c1ccc(OC2CCCCC2)cc1 (stereo not shown) [Example 106, [6-Butyl-5-(4-cyclohexyloxy-phenyl)-pyridazin-3-yl]-(3-dimethylaminomethyl-4-hydroxyoxy-piperidin-1-yl)-methanone dihydrochloride]
pIC50 [1]: 5.76
pIC50 [2]: 5.66

CCCCc1nnc(C(=O)NCC2=CCN(C)CC2)cc1-c1ccc(OC2CCCCC2)cc1 [Example 108, 6-Butyl-5-(4-cyclohexyloxy-phenyl)-pyridazine-3-carboxylic acid (1-methyl-1,2,3,6-tetrahydro-pyridin-4-ylmethyl)-amide dihydrochloride]
pIC50 [1]: 6.07
pIC50 [2]: 5.93

CCCCc1nnc(C(=O)NCC2(F)CCN(C)CC2)cc1-c1ccc(OC2CCCCC2)cc1 [Example 109, 6-Butyl-5-(4-cyclohexyloxy-phenyl)-pyridazine-3-carboxylic acid (4-fluoro-1-methyl-piperidin-4-ylmethyl)-amide dihydrochloride]
pIC50 [1]: 5.23
pIC50 [2]: 5.23

CCCCc1nnc(C(=O)NC2(CO)CCN(C)C2)cc1-c1ccc(OC2CCCCC2)cc1 (stereo not shown) [Example 111, 6-Butyl-5-(4-cyclohexyloxy-phenyl)-pyridazine-3-carboxylic acid (3-hydroxymethyl-1-methyl-pyrrolidin-3-yl)-amide dihydrochloride]
pIC50 [1]: 5.53
pIC50 [2]: 5.67

CCCCc1nnc(C(=O)N(C)C2CCN(C)CC2)cc1-c1ccc(OC2CCCCC2)cc1 [Example 114, 6-Butyl-5-(4-cyclohexyloxy-phenyl)-pyridazine-3-carboxylic acid methyl-(1-methyl-piperidin-4-yl)-amide dihydrochloride]
pIC50 [1]: 6.01
pIC50 [2]: 5.97

CCCCc1nnc(C(=O)N(C2CC2)C2CCN(C)CC2)cc1-c1ccc(OC2CCCCC2)cc1 [Example 115, 6-Butyl-5-(4-cyclohexyloxy-phenyl)-pyridazine-3-carboxylic acid cyclopropyl-(1-methyl-piperidin-4-yl)-amide dihydrochloride]
pIC50 [1]: 6.00
pIC50 [2]: 5.95
